From patent US11998558B2, “Synthetic composition for treating antibiotic associated complications” (GLYCOM A/S, priority 2015, dated 2024) come the findings set out here.

The subject of assay [1] is B. adolescentis phylogenetic group. The assay is described as follows: Healthy adult study, ITS profiling of the Bifidobacterium community in faecal samples. It counts as in vivo, human. The following applies: healthy adults. The protocol: (§1) A total of 100 male and female healthy adults are recruited to participate in the study. After a screening visit and run-in period of 1-2 weeks, the participants are selected and randomized into ten groups, each of 10 subjects. One group is administered daily a placebo product containing 2 grams of glucose. The remaining 9 groups are administered daily a treatment product containing one of the following: a) 20 g of 2′-FL, b) 10 g of 2′-FL, c) 5 g of 2′-FL, d) 20 g of LNnT, e) 10 g of LNnT, f) 5 g of LNnT, g) 20 g of a 2:1 mixture of 2′-FL and LNnT, h) 10 g of a 2:1 mixture of 2′-FL and LNnT, and i) 5 g of a 2:1 mixture of 2′-FL and LNnT for 2 weeks. The placebo and treatment products are in powder form in a unit dosage container.
(§2) The study runs for 2 weeks with the participants consuming either a placebo or a treatment product daily. Participants are instructed to consume the products in the morning with breakfast. Compliance is monitored through the interactive internet enabled system.
(§3) To assess the Bifidobacterium community, ITS profiling of DNA samples is performed according to Milani et al, FEMS Microbiol. Ecol. 90, 493 (2014). […] Both B. adolescentis and B. pseudocatenulatum are members of the B. adolescentis phylogenetic group. It can be seen that oral ingestion of the HMOs clearly increases the abundance of B. adolescentis and/or B. pseudocatenulatum in the microbiota of healthy adults, as well as its relative abundance compared to the totality of other Bifidobacterium species.

Assay [2] relates to totality of B. longum + B. bifidum + B. animalis lactis + B. angulatum. Described as above. The format is in vivo, human. Conditions: healthy adults. The protocol: as §1, §2, §3

Regarding `CC(=O)N[C@H]1[C@H](O[C@H]2[C@@H](O)[C@@H](CO)O[C@@H](O[C@H]3[C@H](O)[C@@H](O)C(O)O[C@@H]3CO)[C@@H]2O)O[C@H](CO)[C@@H](O[C@@H]2O[C@H](CO)[C@H](O)[C@H](O)[C@H]2O)[C@@H]1O` (mixture of isomers) [LNnT, lacto-N-neotetraose], the figures for the “percentage increase of B. adolescentis phylogenetic group in human faeces after consumption of HMOs” value in assay [1] (5 g daily for 2 weeks), in assay [1] (10 g daily for 2 weeks) and in assay [1] (20 g daily for 2 weeks) were 90%, 195% and 185%, respectively. Also, the “percentage increase of totality of B. longum + B. bifidum + B. animalis lactis + B. angulatum in human faeces after consumption of HMOs” value in assay [2] (5 g daily for 2 weeks) was 50%; in assay [2] (10 g daily for 2 weeks), 130%; in assay [2] (20 g daily for 2 weeks), 105%.

Regarding 2′-fucosyllactose [2′-FL], the “percentage increase of B. adolescentis phylogenetic group in human faeces after consumption of HMOs” value amounted to 50% in assay [1] (5 g daily for 2 weeks), 325% in assay [1] (10 g daily for 2 weeks) and 120% in assay [1] (20 g daily for 2 weeks). Besides, the “percentage increase of totality of B. longum + B. bifidum + B. animalis lactis + B. angulatum in human faeces after consumption of HMOs” value stood at 0% in assay [2] (5 g daily for 2 weeks), 20% in assay [2] (10 g daily for 2 weeks) and 15% in assay [2] (20 g daily for 2 weeks).
